Measured values published in patent publication US20230372382A1, “USE OF ADENOSINE DIPHOSPHATE RIBOSE FOR ADJUVANT THERAPY WITH RADIATION AND/OR ANTI-CANCER TREATMENT” (PearlsInMires Co., Ltd., priority 2021, published 2023).
pIC50: −log10 of the molar value.

Key:
[1] = test system: Liver cancer (Hep G2) cells; test: Cell death by combination treatment with anti-cancer drug (MTT); details: Homo sapiens, HepG2, 24 h, read-out: viability of cancer cells
Description: 3×10^3 Liver cancer (Hep G2) cells were cultured in a 96-well plate for 24 hours under conditions of 37° C. and 5% CO2, treated with ADP-ribose at a concentration of 1.6 μM and sorafenib at 1 μM, individually or in combination, and cultured for 24 hours under conditions of 37° C. and 5% CO2 again. Then, 10 μl of 3-(4,5-dimethylthiazol-2-yl)-2,5-diphenyltetrazolium bromide reagent was added to each well and reacted for 1 hour. After the reaction was completed, the reagent was removed, 200 μl of dimethyl sulfoxide was added to each well, and the absorbance was measured to confirm cell viability.

U-87MG cells [2] = test: Cancer cell death verification (MTT cell viability); type: cell-based
Description: 3×10^3 Brain cancer (U-87MG), lung cancer (H1975), pancreatic cancer (Aspc-1), liver cancer (Hep G2), breast cancer (MDA-MB-231), colon cancer (HCT116), kidney cancer (Caki-1), gastric cancer (SNU-1) and ovarian cancer (OVCAR-3) cells were cultured in a 96-well plate under conditions of 37° C. and 5% CO2 for 24 hours, and then each cancer cell was treated with ADP-ribose at each concentration. After culturing for 24 hours under conditions of 37° C. and 5% CO2 again, 10 μl of 3-(4,5-dimethylthiazol-2-yl)-2,5-diphenyltetrazolium bromide reagent was added to each well and reacted for 1 hour. After the reaction was completed, the reagent was removed, 200 μl of dimethyl sulfoxide was added to each well, and the absorbance was measured to determine the concentration of half-lethality and maximum lethality compared to untreated cells.
3×10^3 U-87MG cells were cultured in a 96-well plate for 24 hours under conditions of 37° C. and 5% CO2, treated with ADP-ribose at final concentrations of 0.125, 0.25, 0.5, 1, 2, 4, 8, 16, and 32 μM, respectively, and cultured again for 24 hours under conditions of 37° C. and 5% CO2. Then, 10 μl of 3-(4,5-dimethylthiazol-2-yl)-2,5-diphenyltetrazolium bromide reagent was added to each well and reacted for 1 hour. After the reaction was completed, the reagent was removed, 200 μl of dimethyl sulfoxide was added to each well, and the absorbance was measured to confirm cell viability.

AsPC-1 cells = test: Transwell metastasis and invasion ability of cancer cells; type: cell-based; details: AsPC-1, 16 μM ADP-ribose
Description: Metastasis and invasion ability of cancer cells were analyzed by using a transwell having polycarbonate membrane filters with 8.0 μm pore size. The transwell was put into a 24-well plate. In each well, pancreatic cancer (Aspc-1) and breast cancer (MDA-MB-231) cells were seeded on the upper surface of the insert at a density of 3.5×10^5 cells per well, divided into the untreated group and ADP-ribose-treated groups, and cultured under conditions of 37° C. and 5% CO2 for 24 hours. After culturing, the transwell was carefully washed with sterile water and then placed in 100% methanol to fix the attached cells. After fixation, the cells were stained with hematoxylin and an eosin reagent to observe the cells, and the ratio of cells that permeated the upper surface of the insert and metastasized and invaded the lower surface, compared to the untreated group, was obtained.
Analysis was performed using a transwell having polycarbonate membrane filters with 8.0 μm pore size. […] After culturing, the transwell was carefully washed with sterile water and then placed in 100% methanol to fix the attached cells. After fixation, the cells were stained with hematoxylin and an eosin reagent to observe the cells.

[3] = test system: Kidney cancer (Caki-1) cells; test: Xenograft model, intravenous ADP-ribose, tumor volume; type: in vivo, BALB/c nude mice; details: Caki-1 xenograft, 3 times a week, control about 2074.9
Description: Pancreatic cancer (AsPC-1) or kidney cancer (Caki-1) cells (1×10^7 cells) were inoculated into 5-week-old BALB/c nude mice on the back flank, and the mice were grown up to approximately 150 mm^3 of the tumor volume. Then, three concentrations of ADP-ribose were administered subcutaneously, intravenously, and orally 3 times a week. The tumor size was measured every 6 days using a digital caliper, and the changes in tumor volume were compared for each group.
Kidney cancer (Caki-1) cells (1×10^7) were inoculated into 5-week-old BALB/c nude mice on the back flank, and the mice were divided into 4 groups: the control group (Control) and groups injected intravenously with 2, 10, and 20 mg/kg of ADP-ribose. When the tumors were grown to a volume of approximately 150 mm^3, each concentration of ADP-ribose was […] injected 3 times a week. The tumor size was measured using a digital caliper, and the results of changes in tumor volume were compared by the group.

[4] = test system: Kidney cancer (Caki-1) cells; test: Xenograft model, combination with radiation, tumor volume; type: in vivo, BALB/c nude mice; details: Caki-1 xenograft
Description: Brain cancer (U-87MG), pancreatic cancer (AsPC-1), breast cancer (MDA-MB-231), or kidney cancer (Caki-1) cells (1×10^7 cells) were inoculated into 5-week-old BALB/c nude mice on the back flank, respectively. Then, when tumors were grown to a volume of approximately 150 mm^3, the mice were divided into three groups: the control group (Control), 2 Gy dose of radiation alone, and a combination administration of 2 Gy dose of radiation+10 mg/kg of ADP-ribose (subcutaneous administration, 3 times a week). The irradiation was performed with an X-Rad 320 irradiator (Precision X-ray, North Branford, CT, USA), wherein the mice were placed by maintaining an appropriate distance from the radiation source for irradiation with a predetermined radiation dose. A lead shield was used to protect the body parts or organs from exposure to radiation, other than the cancerous part of the mouse. The irradiation was performed with a total of 2 Gy of radiation fractionated into two doses of 1 Gy each (for 2 days) at a dose rate of 300 kVp and 150 cGy/min using an X-ray beam filter composed of 12.5 mA and 2.0 mm Al. The tumor size was measured every 6 days using a digital caliper, and the results of changes in tumor volume were compared by the group.
Kidney cancer (Caki-1) cells (1×10^7) were inoculated into 5-week-old BALB/c nude mice on the back flank, and the mice were divided into three groups: the control group (Control), 2 Gy dose of radiation alone, and combination administration of 2 Gy dose radiation+20 mg/kg of ADP-ribose. When the tumors were grown to a volume of approximately 150 mm^3, 2 Gy dose of radiation was irradiated twice at 1 Gy each, and 20 mg/kg of ADP-ribose was injected subcutaneously 3 times a week. The tumor size was measured using a digital caliper, and the results of changes in tumor volume were compared by the group.

[5] = test system: Pancreatic cancer (AsPC-1) cells; test: Cell death by combination treatment with anti-cancer drug (MTT); type: cell-based; details: Homo sapiens, ASPC1, 24 h
Description: 3×10^3 Brain cancer (U-87MG), lung cancer (H1975), pancreatic cancer (Aspc-1), liver cancer (Hep G2), breast cancer (MDA-MB-231), and colon cancer (HCT116) cells were cultured in a 96-well plate for 24 hours under conditions of 37° C. and 5% Ca2, respectively. […] After the treatment was terminated, the cells were cultured for 24 hours under conditions of 37° C. and 5% CO2 again, 10 μl of 3-(4,5-dimethylthiazol-2-yl)-2,5-diphenyltetrazolium bromide reagent was added to each well and reacted for 1 hour. After the reaction was completed, the reagent was removed, 200 μl of dimethyl sulfoxide was added to each well, and the absorbance was measured to compare the degree of cell death.
Then, 10 μl of 3-(4,5-dimethylthiazol-2-yl)-2,5-diphenyltetrazolium bromide reagent was added to each well and reacted for 1 hour. After the reaction was completed, the reagent was removed, 200 μl of dimethyl sulfoxide was added to each well, and the absorbance was measured to confirm cell viability.

U-87MG cells [6] = test: Change over time in intracellular ADP-ribose, radiation versus ADP-ribose treatment (ELISA); type: cell-based; details: 8 μM ADP-ribose, even after 24 hours, after radiation back to untreated level at 24 hours
Description: Brain cancer (U-87MG), kidney cancer (Caki-1), pancreatic cancer (AsPC-1), or breast cancer (MDA-MB-231) cells were cultured in a 6-well plate, respectively, and the cells were divided into the untreated group, the radiation-treated group, and the ADP-ribose-treated group. Irradiation was performed using an X-Rad 320 irradiator (Precision X-ray, North Branford, CT, USA), and cancer cells were treated with a total of 1, 2, and 5 Gy at a dose rate of 300 kVp and 150 cGy/min using an X-ray beam filter composed of 12.5 mA and 2.0 mm Al, respectively. Before treatment and at 4, 8, 16, and 24 hours after treatment, the medium was removed, the cells were washed with phosphate-buffered saline, and then RIPA buffer was added and the products were left on ice for 20 minutes. After scraping the cells, the cells were put in a centrifuge tube and centrifuged for 10 minutes at 10,000 g and 4° C. The supernatant was obtained, and 1% SDS was added, and then the reaction product was boiled at 100° C. for 5 minutes and cooled on ice. The supernatant was centrifuged again at 10,000 g and 4° C. for 10 minutes to obtain the final supernatant, and ADP-ribose was quantitatively analyzed using an ELISA analysis kit (Cell Biolabs, Inc., San Diego, CA, USA). […]

[7] = ADP-ribose 20 mg/kg s.c. + 2 Gy radiation, P<0.001

## Nc1ncnc2c1ncn2[C@@H]1O[C@H](COP(=O)(O)OP(=O)(O)OC[C@H]2O[C@@H](O)C(O)C2O)C(O)C1O (some centres unmarked) [ADP-ribose, adenosine diphosphate ribose]
[1]
  viability at 1.6 µM: ~0.9%
U-87MG cells [2]; Homo sapiens, U-87 MG, 24 h, read-out: half-lethal dose (concentration at which about half of the cells were killed)
  pIC50: ~5.10
U-87MG cells [2]; U-87MG, 24 hours, MTT
  maximum lethal dose (concentration at which almost all cells were killed): 32 µM
U-87MG cells [2]; U-87MG, ADP-ribose treated vs control, FIG. 2A
  cancer cell growth under a microscope: inhibited from growing and killed
AsPC-1 cells; 24 hours, FIG. 10A
  invasion and metastasis from upper to lower part of the transwell (photomicrograph): significantly inhibited
AsPC-1 cells; P<0.001, FIG. 10B
  metastasis and invasion ability, quantitatively measured, compared to the control group: significantly reduced
[3]; 2 mg/kg intravenous
  final tumor volume: 706.7 mm^3
[3]; 10 mg/kg intravenous
  final tumor volume: 331.7 mm^3
[3]; 20 mg/kg intravenous
  final tumor volume: 227.2 mm^3
[4]; [7]
  reduction of tumor volume compared to the control group: about 70%
  reduction of tumor volume compared to the group treated with 2 Gy dose of radiation alone: about 68%
[4]; ADP-ribose 20 mg/kg subcutaneous 3 times a week + 2 Gy radiation, control about 2620.5, 2 Gy alone about 2454.5
  final tumor volume: about 786.4 mm^3
[5]
  viability at 1.6 µM: ~1%
U-87MG cells [6]
  amount of ADP-ribose in the cells over time compared to the control group: maintained a significant (P<0.001) increase
